Measured values from PubChem BioAssay (NCI).
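Growth conditions: 96-well plates. Treatment: test compound, 48 hours, 5 concentrations. Analysis: linear interpolation between bracketing concentrations; unreached endpoints set to highest concentration. The concentration for full growth arrest is given as TGI.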

What was measured:
Assay in all cases: DTP human tumour cell line panel, 48 h
786-0 renal = tested on: 786-0 renal
A498 renal = tested on: A498 renal
A549 NSCLC = tested on: A549 NSCLC
ACHN renal = tested on: ACHN renal
BT-549 breast = tested on: BT-549 breast
CAKI-1 renal = tested on: CAKI-1 renal
CCRF-CEM leukemia = tested on: CCRF-CEM leukemia
COLO 205 colon = tested on: COLO 205 colon
DU-145 prostate = tested on: DU-145 prostate
EKVX NSCLC = tested on: EKVX NSCLC
HCC-2998 colon = tested on: HCC-2998 colon
HCT-116 colon = tested on: HCT-116 colon
HCT-15 colon = tested on: HCT-15 colon
HOP-62 NSCLC = tested on: HOP-62 NSCLC
HOP-92 NSCLC = tested on: HOP-92 NSCLC
HS 578T breast = tested on: HS 578T breast
HT29 colon = tested on: HT29 colon
IGROV1 ovarian = tested on: IGROV1 ovarian
K-562 leukemia = tested on: K-562 leukemia
KM12 colon = tested on: KM12 colon
LOX IMVI melanoma = tested on: LOX IMVI melanoma
M14 melanoma = tested on: M14 melanoma
MALME-3M melanoma = tested on: MALME-3M melanoma
MCF7 breast = tested on: MCF7 breast
MDA-MB-231 breast = tested on: MDA-MB-231 breast
MDA-MB-435 = tested on: MDA-MB-435
MDA-N = tested on: MDA-N
MOLT-4 leukemia = tested on: MOLT-4 leukemia
NCI-H226 lung = tested on: NCI-H226 lung
NCI-H23 lung = tested on: NCI-H23 lung
NCI-H460 lung = tested on: NCI-H460 lung
NCI-H522 lung = tested on: NCI-H522 lung
NCI/ADR-RES ovarian = tested on: NCI/ADR-RES ovarian
OVCAR-3 ovarian = tested on: OVCAR-3 ovarian
OVCAR-4 ovarian = tested on: OVCAR-4 ovarian
OVCAR-5 ovarian = tested on: OVCAR-5 ovarian
OVCAR-8 ovarian = tested on: OVCAR-8 ovarian
PC-3 prostate = tested on: PC-3 prostate
RPMI-8226 leukemia = tested on: RPMI-8226 leukemia
RXF 393 renal = tested on: RXF 393 renal
SF-268 CNS = tested on: SF-268 CNS
SF-295 CNS = tested on: SF-295 CNS
SF-539 CNS = tested on: SF-539 CNS
SK-MEL-2 melanoma = tested on: SK-MEL-2 melanoma
SK-MEL-28 melanoma = tested on: SK-MEL-28 melanoma
SK-MEL-5 melanoma = tested on: SK-MEL-5 melanoma
SK-OV-3 ovarian = tested on: SK-OV-3 ovarian
SN12C renal = tested on: SN12C renal
SNB-19 CNS = tested on: SNB-19 CNS
SNB-75 CNS = tested on: SNB-75 CNS
SR leukemia = tested on: SR leukemia
SW-620 colon = tested on: SW-620 colon
T-47D breast = tested on: T-47D breast
TK-10 renal = tested on: TK-10 renal
U251 CNS = tested on: U251 CNS
UACC-257 melanoma = tested on: UACC-257 melanoma
UACC-62 melanoma = tested on: UACC-62 melanoma
UO-31 renal = tested on: UO-31 renal

Measured: TGI

ONCCCn1cnc2c(NC3CC3)ncnc21
> 100 µM: all assays above

CCn1c(=O)c2cn[nH]c2n(C)c1=O
> 100 µM: all assays above
